# Assay results: patent US4448962A, “Substituted quinoline carboxylic acid derivatives” (Kyorin Seiyaku Kabushiki Kaisha, priority 1978, dated 1984)
# Where a name gives a salt, the structure may show the parent alone. Read-outs that look alike come from different tables or passages of the source.
# Experiments:
# Experiment in all cases: Antibacterial spectrum (Minimum Inhibitory Concentration)
# Format in all cases: cell-based
# E. coli ATCC 10536 = settings: Escherichia coli
# Description: (§1) The antibacterial tests were done according to the method authorized by the Chemotherapeutic Society of Japan.
# [1] = test system: Pseudomonas aeruginosa V-1
# Description: as §1
# Ps. aeruginosa IFO 12689 = settings: Pseudomonas aeruginosa
# Description: as §1
# Sta. aureus ATCC 14775 = settings: Staphylococcus aureus
# Description: as §1
# Ps. aeruginosa IID 1130 = settings: Pseudomonas aeruginosa
# Description: as §1
# Ps. aeruginosa IID 1210 = settings: Pseudomonas aeruginosa
# Description: as §1
# [2] = test system: Salmonella enteritidies IID 604
# Description: as §1
# [3] = test system: Escherichia coli NIHJ JC-2
# Description: as §1
# Ser. marcescens IID 619 = settings: Serratia marcescens
# Description: as §1
# [4] = test system: Serratia marcescens IID 618
# Description: as §1
# Pr. vulgaris XK Denken = settings: Proteus vulgaris, read-out: Minimum Inhibitory Concentration
# Description: as §1
# [5] = test system: Bacillus subtilis PCI 219
# Description: as §1
# [6] = test system: Staphylococcus aureus 209P; settings: read-out: Minimum Inhibitory Concentration
# Description: as §1
# [7] = test system: Proteus vulgaris IFO 3167
# Description: as §1
# Ser. marcescens IID 620 = settings: Serratia marcescens
# Description: as §1
# [8] = test system: Klebsiella pneumoniae IFO 3512
# Description: as §1
# Shigella sonnei IID 969 = settings: IID969; Shigella sonnei IID 969, Gram -
# Description: as §1
# [9] = test system: Mycobacterium smegmatis IFO 3083; settings: Mycolicibacterium smegmatis, IFO3083; Mycobacterium smegmatis IFO 3083, Gram +; read-out: Minimum Inhibitory Concentration
# Description: as §1
# [10] = ATCC10536, E. coli ATCC 10536, Gram -, read-out: Minimum Inhibitory Concentration
# [11] = V1, Pseudomonas aeruginosa V-1, Gram -, read-out: Minimum Inhibitory Concentration
# [12] = IFO12689, read-out: Minimum Inhibitory Concentration
# [13] = ATCC14775, Sta. aureus ATCC 14775, Gram +, read-out: Minimum Inhibitory Concentration
# [14] = IID1130, Ps. aeruginosa IID 1130, Gram -, read-out: Minimum Inhibitory Concentration
# [15] = IID1210, Ps. aeruginosa IID 1210, Gram -, read-out: Minimum Inhibitory Concentration
# [16] = Salmonella, IID604, read-out: Minimum Inhibitory Concentration
# [17] = NIHJJC2, Escherichia coli NIHJ JC-2, Gram -, read-out: Minimum Inhibitory Concentration
# [18] = IID619, Ser. marcescens IID 619, Gram -, read-out: Minimum Inhibitory Concentration
# [19] = IID618, Serratia marcescens IID 618, Gram -, read-out: Minimum Inhibitory Concentration
# [20] = PCI219, Bacillus subtilis PCI 219, Gram +, read-out: Minimum Inhibitory Concentration
# [21] = Staphylococcus aureus 209P, Gram +
# [22] = IFO3167, Proteus vulgaris IFO 3167, Gram -, read-out: Minimum Inhibitory Concentration
# [23] = IID620, Ser. marcescens IID 620, Gram -, read-out: Minimum Inhibitory Concentration
# [24] = IFO3512, Klebsiella pneumoniae IFO 3512, Gram -, read-out: Minimum Inhibitory Concentration
# [25] = ATCC10536, read-out: Minimum Inhibitory Concentration
# [26] = IFO12689, Ps. aeruginosa IFO 12689, Gram -, read-out: Minimum Inhibitory Concentration
# [27] = IID604, Salmonella enteritidies IID 604, Gram -, read-out: Minimum Inhibitory Concentration
# [28] = Proteus vulgaris, IFO3167, read-out: Minimum Inhibitory Concentration
# [29] = ATCC14775, read-out: Minimum Inhibitory Concentration
# [30] = Escherichia coli, NIHJJC2, read-out: Minimum Inhibitory Concentration
# [31] = Bacillus subtilis, PCI219, read-out: Minimum Inhibitory Concentration
# [32] = Klebsiella pneumoniae, IFO3512, read-out: Minimum Inhibitory Concentration
Structure (SMILES),MIC (E. coli ATCC 10536; [10]) [µg/mL],"MIC [1, 11] [µg/mL]",MIC (Sta. aureus ATCC 14775; [13]) [µg/mL],MIC (Ps. aeruginosa IID 1130; [14]) [µg/mL],MIC (Ps. aeruginosa IID 1210; [15]) [µg/mL],"MIC [3, 17] [µg/mL]",MIC (Ser. marcescens IID 619; [18]) [µg/mL],"MIC [4, 19] [µg/mL]","MIC (Pr. vulgaris XK Denken; Pr. vulgaris XK Denken, Gram -) [µg/mL]","MIC [5, 20] [µg/mL]","MIC [6, 21] [µg/mL]","MIC [7, 22] [µg/mL]",MIC (Ser. marcescens IID 620; [23]) [µg/mL],"MIC [8, 24] [µg/mL]",MIC (E. coli ATCC 10536; [25]) [µg/mL],MIC (Ps. aeruginosa IFO 12689; [26]) [µg/mL],"MIC [2, 27] [µg/mL]","MIC [7, 28] [µg/mL]",MIC (Shigella sonnei IID 969) [µg/mL],other results
"CCn1cc(C(=O)O)c(=O)c2cc(F)c(N3CCNCC3)nc21.Cl [Example 1, 1-ethyl-1,4-dihydro-6-fluoro-7-(1-piperazinyl)-4-oxo-1,8-naphthyridine-3-carboxylic acid hydrochloride]",0.39,3.13,6.25,1.56,6.25,0.2,0.78,0.39,0.39,0.39,0.78,0.2,0.39,0.2,–,–,–,–,–,"MIC (Ps. aeruginosa IFO 12689; [12]): 6.25 µg/mL; MIC [2, 16]: 0.39 µg/mL"
"C=Cn1cc(C(=O)O)c(=O)c2cc(F)c(N3CCN(C)CC3)cc21.Cl [Example 4, 1-vinyl-6-fluoro-7-(4-methyl-1-piperazinyl)-4-oxo-1,4-dihydroquinoline-3-carboxylic acid hydrochloride]",–,3.13,3.13,6.25,3.13,< 0.1,0.78,0.39,–,0.39,1.56,–,0.39,< 0.1,0.2,3.13,0.78,0.2,0.2,MIC (Pr. vulgaris XK Denken): 0.2 µg/mL
"Cl.O=C(O)c1cn(CCF)c2cc(N3CCNCC3)c(F)cc2c1=O [Example 5, 1-(2-fluoroethyl)-6-fluoro-7-(1-piperazinyl)-4-oxo-1,4-dihydroquinoline-3-carboxylic acid hydrochloride]",–,–,–,–,–,–,–,–,–,–,–,–,–,–,0.2,–,–,0.2,< 0.1,"MIC ([1]; Pseudomonas aeruginosa, V1, read-out: Minimum Inhibitory Concentration): 0.78 µg/mL; MIC (Ps. aeruginosa IFO 12689; [12]): 3.13 µg/mL; MIC (Sta. aureus ATCC 14775; [29]): 6.25 µg/mL; MIC (Ps. aeruginosa IID 1130; IID1130, read-out: Minimum Inhibitory Concentration): 1.56 µg/mL; MIC (Ps. aeruginosa IID 1210; IID1210, read-out: Minimum Inhibitory Concentration): 3.13 µg/mL; MIC [2, 16]: 0.78 µg/mL; MIC [3, 30]: < 0.1 µg/mL; MIC (Ser. marcescens IID 619; IID619, read-out: Minimum Inhibitory Concentration): 0.39 µg/mL; MIC ([4]; Serratia marcescens, IID618, read-out: Minimum Inhibitory Concentration): 0.2 µg/mL; MIC (Pr. vulgaris XK Denken): 0.39 µg/mL; MIC [5, 31]: 0.2 µg/mL; MIC ([6]; Staphylococcus aureus, 209P): 1.56 µg/mL; MIC (Ser. marcescens IID 620; IID620, read-out: Minimum Inhibitory Concentration): 0.2 µg/mL; MIC [8, 32]: < 0.1 µg/mL"
"CN1CCN(c2cc3c(cc2F)c(=O)c(C(=O)O)cn3CCF)CC1 [Example 6, 1-(2-fluoroethyl)-6-fluoro-7-(4-methyl-1-piperazinyl)-4-oxo-1,4-dihydroquinoline-3-carboxylic acid]",0.2,3.13,0.78,6.25,6.25,< 0.1,0.2,0.2,–,–,0.39,–,0.2,–,–,3.13,0.78,< 0.1,< 0.1,"MIC (Pr. vulgaris XK Denken): < 0.1 µg/mL; MIC [5, 31]: < 0.1 µg/mL; MIC [8, 32]: < 0.1 µg/mL"
"CCn1cc(C(=O)O)c(=O)c2cc(F)c(N3CCN(Cc4ccc(N)cc4)CC3)cc21.Cl [Example 7, 1-ethyl-7-[(4-p-aminobenzyl)-1-piperazinyl]-1,4-dihydro-6-fluoro-4-oxo-quinoline-3-carboxylic acid hydrochloride]",–,12.5,–,25,25,–,3.13,3.13,0.78,–,–,0.78,–,–,0.39,25,3.13,–,–,"MIC (Sta. aureus ATCC 14775; [29]): 0.39 µg/mL; MIC [5, 31]: 0.2 µg/mL; MIC [8, 32]: 0.1 µg/mL"
"CCn1cc(C(=O)O)c(=O)c2cc(F)c(N3CCNC(=O)C3)cc21 [Example 8, 1-ethyl-1,4-dihydro-6-fluoro-7-(3-oxo-1-piperazinyl)-4-oxoquinoline-3-carboxylic acid]",0.78,12.5,6.25,25,> 25,0.39,12.5,6.25,0.39,0.78,3.13,0.78,6.25,0.1,–,25,12.5,–,–,–
"CCOC(=O)CN1CCN(c2cc3c(cc2Cl)c(=O)c(C(=O)O)cn3CC)CC1 [Example 13, 1-ethyl-6-chloro-7-(4-ethoxycarbonylmethyl-1-piperazinyl)-4-oxo-1,4-dihydroquinoline-3-carboxylic acid]",100,> 100,–,–,–,100,–,–,50,3.13,> 100,100,–,6.25,–,> 100,–,–,–,MIC [9]: 25 µg/mL
CCn1cc(C(=O)O)c(=O)c2cc(Cl)c(N3CCN(CC(=O)O)CC3)cc21 [Example 14],12.5,> 100,–,–,–,12.5,–,–,12.5,50,–,25,–,12.5,–,> 100,–,–,–,"MIC ([6]; Staphylococcus aureus, 209P): 50 µg/mL; MIC [9]: > 100 µg/mL"
"CCn1cc(C(=O)O)c(=O)c2cc(Br)c(N3CCNCC3)cc21 [Example 22, 1-ethyl-6-bromo-dihydro-4-oxo-7-(1-piperazinyl)quinoline-3-carboxylic acid hydrochloride]",0.78,12.5,12.5,50,100,0.39,3.13,0.78,1.56,1.56,3.13,0.39,0.78,0.39,–,50,1.56,–,0.39,–
"CCn1cc(C(=O)O)c(=O)c2cc(Br)c(N3CCN(C)CC3)cc21 [Example 23, 1-ethyl-6-bromo-1,4-dihydro-7-(4-methyl-1-piperazinyl)-4-oxoquinoline-3-carboxylic acid]",0.78,100,3.13,> 100,> 100,0.39,3.13,0.78,3.13,0.78,1.56,0.78,0.78,0.39,–,> 100,3.13,–,0.78,–
"CCn1cc(C(=O)O)c(=O)c2cc(F)c(N3CCN(Cc4ccc([N+](=O)[O-])cc4)CC3)cc21 [Example 27, 1-ethyl-1,4-dihydro-6-fluoro-7-[4-(p-nitrobenzyl)-1-piperazinyl]-4-oxo-3-carboxylic acid]",–,> 50,3.13,–,–,–,–,–,12.5,0.1,1.56,–,–,0.1,6.25,> 50,–,6.25,6.25,"MIC [3, 30]: 6.25 µg/mL"
"CCn1cc(C(=O)O)c(=O)c2cc(F)c(N3CCN(C4OC(=O)c5ccccc54)CC3)cc21 (stereo not drawn) [Example 28, 1-ethyl-1,4-dihydro-6-fluoro-4-oxo-7-(4-phthalidyl-1-piperazinyl)quinoline-3-carboxylic acid]",–,0.78,3.13,1.56,1.56,≤ 0.05,0.2,0.1,0.2,0.2,0.78,≤ 0.05,0.1,≤ 0.05,0.1,1.56,0.1,–,–,–
